Reference: patent US20130224115A1, “NON-RADIOACTIVE AGENTS FOR NEUROBLASTOMA IMAGING” (Baylor College of Medicine, priority 2010, published 2013)
Several values for one entry are separate records, joined by “and”; a condition that tells them apart may be missing. Equal entries are not always repeated. Entries after “also recorded” stand apart in the source; their conditions may differ.

Tests used:
[1] = tested on: human neuroblastoma cells (NPG.Luc cells); test: NIR confocal microscopy of imaging agent uptake by neuroblastoma cells; type: cell-based; conditions: 50 μmolar, incubated overnight at 37° C., ex/em 765/810 nm
Description: Cell lines. Human neuroblastoma cancer cell lines NB1691.1uc and SYFY.luc were cultured in Dulbecco's Modified Eagle's Medium supplemented with high glucose and F12 nutrient (DMEM/F12, Invitrogen, Carlsbad, Calif.) with 10% fetal bovine serum (Hyclone, Logan, Utah) in a humidified incubator maintained at 37° C. with 5% CO2.
Confocal microscope imaging. Cells were harvested from culture and incubated overnight at 37° C. with W765-BG imaging agent or NIR dye at final concentrations of 50 μmolar. Cells were washed in PBS, then incubated for 15 min at 4° C. with Sytox green (Molecular Probes) in 95% ethanol to fix the cells and stain cell nuclei. Stained cells were then transferred to a slide and mounted for microscopic examination. Images were recorded using an Olympus confocal microscope (Model: Fluorview 1000, Olympus America, Center Valley, Pa., USA). The microscope was equipped with excitation (Ex) light source and emission (Em) filters to detect and separate W765-BG or NIR dye (ex/em 765/810 nm) and cell nuclei (ex/em 488/510 nm) signals. In the microscopic images, signal intensities were recorded from one slice of 23 cell z-stacks with 0.5 micrometers gaps. Sytox green and W765-BG or NIR dye signals were pseudo colored into green (emission at 510 nm) and red (emission at 810 nm), respectively.
Imaging of W765-BG in neuroblastoma cells. To evaluate W765-BG as a potential specific molecule, its ability to uptakes by neuroblastoma cells was examined in vitro by NIR confocal microscopy. NPG.Luc cells were treated with W765-BG or free dye overnight at 37° C., after which they were washed, fixed, and visualized by confocal microscopy.
In vitro cell uptake imaging agent. Imaging agent uptake by the cells was recorded by confocal microscopy. The images show cell morphology (FIG. 3A), cell nuclei (FIG. 3B), and W765-BG uptakes by cells (FIG. 3C). […] Those results were validated by non-overlaid NIR images (FIG. 3G and FIG. 3H).

[2] = tested on: NGP.Luc xenograft; test: In vivo NIR optical imaging of NGP.Luc tumor xenografts in mice
Description: (§1) Tumor xenografts: Four- to six-week-old female nude mice (18-22 g) (Taconic, Hudson, N.Y.) were housed and fed with sterilized pellet chow and sterilized water. Animals were maintained in a pathogen-free mouse colony. Tumor cells near confluence were harvested by incubation with 0.05% trypsin-EDTA. Cells were pelleted by centrifugation at 130×g for 5 min and resuspended in sterile phosphate-buffered saline (PBS). Approximately 1 million cells were implanted subcutaneously into the hind leg region of the mice. A total of 15 mice was used in this study.
(§2) Animal imaging. Tumors were visualized by intraperitoneal injection of 3 mg of VivoGlo Luciferin (Promega, Madison Wis.) before the imaging session, and pseudo into cyan. Ten nanomoles of W765-BG and 3 nanomoles of the vascular agent RGD-Cy5.5 were injected i.v. into the tumor-bearing mice prior to the imaging study. The animals were imaged 1 to 9 days after the injection using the Kodak In-Vivo Multispectral System FX (Carestream Health Molecular Imaging, New Haven, Conn.). Vasculature images were recorded at wavelengths of ex/em 650/700 nm for RDG-Cy5.5 and pseudo colored into red. The W765-BG signal was recorded at wavelengths of ex/em 770/830 nm and pseudo colored into green. Tumor cells, vasculature, and W765-BG signals were precisely overlaid with anatomical X-ray images.
Imaging of W765-BG in human tumor xenografts in mice. […] Tumor-bearing mice received an intraperitoneal injection of Luciferin to visualize the tumor cells, followed by an intravenous injection of W765-BG from the tail vein. Whole body images were collected at 24 h intervals over the course of eight days. Tumors were visualized by white light, X-ray and luciferase imaging (FIG. 2). […] When merging the optical signal of W765-BG with luciferase and anatomic X-ray images (FIG. 2E-2F), their precise overlay confirms the specificity of W765-BG.
In contrast, the NGP.Luc tumor was rather diffuse without a clear margin in the early tumor growth phase (FIG. 4G). The tumor vasculature developed better than in the NB1691.Luc tumor. […] The diffused tumor growth pattern also limited the W765-BG imaging findings in this stage (FIG. 4I). Once again, the merged images show the location of the tumor cells and the vasculature status (FIG. 4J to FIG. 4L). One week later, the tumor cells became more concentrated in one location (FIG. 4M). The vasculature surrounding the tumor node was well formed (FIG. 4N) and the TBR of the vasculature agent increased to 1.90. […] The two imaging agents were distributed differently in the body (FIG. 4P). […] Merged X-ray and W765-BG images confirmed the tumor size, location and W765-BG signal intensity (FIG. 4Q).

[3] = tested on: NB1691.Luc xenograft; test: In vivo NIR optical imaging of NB1691.Luc tumor xenografts in mice; conditions: 7 days post inoculation, 10 nmol W765-BG, 3 nmol RGD-Cy5.5 i.v.
Description: as §1
Animal imaging. Tumors were visualized by intraperitoneal injection of 3 mg of VivoGlo Luciferin (Promega, Madison Wis.) before the imaging session, and pseudo into cyan. Ten nanomoles of W765-BG and 3 nanomoles of the vascular agent RGD-Cy5.5 were injected i.v. into the tumor-bearing mice prior to the imaging study. […] Vasculature images were recorded at wavelengths of ex/em 650/700 nm for RDG-Cy5.5 and pseudo colored into red. The W765-BG signal was recorded at wavelengths of ex/em 770/830 nm and pseudo colored into green. […]
In vivo imaging. Luciferase positive tumor cell could be detected as early as 4 days after inoculation (data not show). Different tumor growth patterns were detected at 7 days post inoculation. […]

[4] = tested on: human neuroblastoma xenograft; test: Whole body and dissected organ imaging in the neuroblastoma xenograft mouse model (late stage tumor, imaging window); type: in vivo, mice
Description: as §1, §2
Late stage tumor, organ image and pathological analysis. Late stage tumor mass and organ imaging were performed after the injection of additional imaging agent (FIG. 5A-H). […] Gross necropsy confirmed the necrosis in the center of this tumor. H&E stain confirmed the identification of tumor (FIG. 5I), muscle (FIG. 5J), liver (FIG. 5K), kidney (FIG. 5L), and spleen (FIG. 5M) at pathological levels.

[5] = tested on: neuroblastomas; conditions: Maris et al., 2007; cited from earlier work

Structure (SMILES): CC1(C)C(/C=C/C2=C(Oc3ccc(S(=O)(=O)O)cc3)C(=C/C=C3/N(CCCCS(=O)(=O)O)c4ccc(S(=O)(=O)[O-])cc4C3(C)C)/CCC2)=[N+](CCCCCC(=O)O)c2ccc(S(=O)(=O)O)cc21 [free dye, IRDye800CW carboxylate, reference compound]
- uptake of agent by neuroblastoma cells (NIR signal in cells, confocal microscopy) [1]: almost no detectable signal
- uptake of agent by neuroblastoma cells (NIR signal in cells, confocal microscopy) ([1]; listed as NIR dye): almost no detectable signal

Structure (SMILES): CC1(C)C(/C=C/C2=C(Oc3ccc(S(=O)(=O)O)cc3)C(=C/C=C3/N(CCCCCC(=O)NCC(=O)Nc4cccc(CNC(=N)N)c4)c4ccc(S(=O)(=O)O)cc4C3(C)C)/CCC2)=[N+](CCCCS(=O)(=O)O)c2ccc(S(=O)(=O)O)cc21 [Compound W765-BG, 2-(3-(IRdye800-Gly-amino)-benzyl)guanidine]
- uptake of agent by neuroblastoma cells (NIR signal in cells, confocal microscopy) [1]: detected inside the cells; also recorded: internalized into cells; also recorded: take up the W765-BG agent; also recorded: high uptake
- tumor to background ratio ([2]; 24 hours after injection): 1.95
- whole body location of NIR signal ([2]; 48 hours after administration (FIG. 2)): detected in tumor region only
- tumor to background ratio ([2]; 48 hours after injection): 1.98
- tumor to background ratio ([2]; 192 hours after injection): 1.52
- tumor-to-background ratio (TBR) ([2]; NGP.Luc, early tumor growth phase (7 days post inoculation), 10 nmol W765-BG, 3 nmol RGD-Cy5.5 i.v.): 1.08
- tumor-to-background ratio (TBR) ([2]; NGP.Luc, one week later than the early stage images): 2.90 and 2.8
- whole body distribution of agent signal ([2]; NGP.Luc, one week later than the early stage images (FIG. 4P)): mainly in the tumor region
- time optical signals were retained in the tumor after injection ([2]; after which signal strength gradually diminished): about 48 hours
- tumor-to-background ratio (TBR) [3]: 0.95
- whole body distribution of agent signal, late stage tumor ([4]; late stage tumor, after injection of additional imaging agent (FIG. 5B, 5C)): non-uniformly distributed in the tumor; also recorded: located only in the tumor region
- distribution of agent in dissected organs ([4]; late stage tumor, dissected organ images (FIG. 5F, 5G)): in the tumor, liver and spleen
- imaging window post injection ([4]; post injection): 8 to 9 days
- uptake by normal renal structures ([4]; retroperitoneal area, whole body images): did not take up
- persistence of tumor specific optical signals once absorbed ([4]; xenograft mouse model): longer than one week

Structure (SMILES): N=C(N)NCc1cccc([131I])c1 [MIBG, meta-iodobenzylguanidine]
- proportion of neuroblastomas in which the agent can be selectively concentrated [5]: more than 90%
